This note sets out measurements from US10961215B2, “N-aryl and N-heteroaryl piperidine derivatives as liver X receptor beta agonists, compositions, and their use” (Merck Sharp & Dohme Corp., priority 2016, dated 2021).

What is called EC50 is the midpoint of the concentration-response curve. A high value points to a less potent agent.

Experiment [1] has as its target T1, GST tagged LXRbeta LBD (ligand binding domain) (Homo sapiens, UniProt P55055).
T1 construct: purchased Invitrogen pv4658.pps
T1 sequence (P55055 222-460 limits assumed): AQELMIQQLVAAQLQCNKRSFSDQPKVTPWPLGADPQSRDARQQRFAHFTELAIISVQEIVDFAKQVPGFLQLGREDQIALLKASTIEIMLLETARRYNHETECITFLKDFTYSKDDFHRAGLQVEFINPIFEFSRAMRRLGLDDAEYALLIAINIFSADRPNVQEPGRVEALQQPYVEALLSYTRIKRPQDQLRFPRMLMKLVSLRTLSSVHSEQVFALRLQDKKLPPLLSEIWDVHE
Put plainly: LanthaScreen TR-FRET Liver X Receptor Coactivator Assay, LXR beta-LBD (co-activator recruitment; IP and % Emax relative to T0901317). The format is biochemical. To be noted: for EC50: Inflection Point of co-activator recruitment, LXR beta-LBD, TR-FRET; for Emax: efficacy at max dose in relation to reference T0901317, LXR beta-LBD, read-out: LXR beta actiivty at max dose (%). An outline of the steps: (§1)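 LXR LBD protein was added to test compounds, then a mix of fluorescein-labelled coactivator peptide and terbium anti-GST antibody. After incubation at room temperature, TR-FRET was read. Inflection point and Emax were derived relative to the reference dual agonist T0901317.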

Experiment [2] has as its target T2, GST tagged LXRalpha LBD (ligand binding domain) (Homo sapiens, UniProt Q13133).
T2 construct: purchased Invitrogen pv4655
T2 sequence (Q13133 209-447 limits assumed): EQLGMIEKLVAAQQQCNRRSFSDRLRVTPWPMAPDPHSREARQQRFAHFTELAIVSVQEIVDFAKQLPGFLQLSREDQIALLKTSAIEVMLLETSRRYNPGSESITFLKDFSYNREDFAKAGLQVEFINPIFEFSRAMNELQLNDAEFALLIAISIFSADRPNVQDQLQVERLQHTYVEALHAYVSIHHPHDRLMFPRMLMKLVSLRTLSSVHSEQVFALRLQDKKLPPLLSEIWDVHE
Put plainly: LanthaScreen TR-FRET Liver X Receptor Coactivator Assay, LXR alpha-LBD (co-activator recruitment; IP and % Emax relative to T0901317). The following applies: for LXR alpha IP (nM): Inflection Point of co-activator recruitment, LXR alpha-LBD, TR-FRET; for Emax: efficacy at max dose in relation to reference T0901317, LXR alpha-LBD, read-out: LXR alpha actiivty at max dose (%). The experiment is classed as biochemical. An outline of the steps:
as §1
A general note: In TR-FRET formats the signal depends on donor and acceptor labels being close together.

Regarding `CC(C)N(C)C(=O)c1ccc(N2CCC3(CC2)C[C@H]3CCN(C)C(=O)[C@](O)(c2ccccc2)C(F)(F)F)cc1Cl` [Example 7-29, 2-chloro-N-isopropyl-N-methyl-4-((S)-1-(2-((R)-3,3,3-trifluoro-2-hydroxy-N-methyl-2-phenylpropanamido)ethyl)-6-azaspiro[2.5]octan-6-yl)benzamide], in experiment [1], the EC50 is 0.611 µM and the Emax came out at 40%. In experiment [2], the “LXR alpha IP (nM)” value was “No IP” and the Emax is 5%.

In the case of `COc1cccc([C@@](O)(C(=O)N(C)CC[C@@H]2CC23CCN(c2ccc(C(=O)N(C)C(C)C)c(Cl)c2)CC3)C(F)(F)F)c1` [Example 7-30, 2-chloro-N-isopropyl-N-methyl-4-((S)-1-(2-((R)-3,3,3-trifluoro-2-hydroxy-2-(3-methoxy-phenyl)-N-methyl-propanamido)ethyl)-6-azaspiro[2.5]octan-6-yl)benzamide], in experiment [1], the EC50 was 0.557 µM and the Emax amounted to 27%. Also, in experiment [2], the “LXR alpha IP (nM)” value is on record as “No IP” and the Emax was 0%.

Consider `COc1cccc([C@@](O)(C(=O)NCC[C@H]2CC23CCN(c2ccc(C(=O)N(C)C(C)C)c(Cl)c2)CC3)C(F)(F)F)c1` [Example 7-31, 2-chloro-N-isopropyl-N-methyl-4-((R)-1-(2-((R)-3,3,3-trifluoro-2-hydroxy-2-(3-methoxy-phenyl)propanamido)ethyl)-6-azaspiro[2.5]octan-6-yl)benzamide], for which, in experiment [1], the EC50 was 0.304 µM and the Emax turned out to be 49%. Further, in experiment [2], the “LXR alpha IP (nM)” value is “No IP” and the Emax came to 1%.

`COc1cccc([C@@](O)(C(=O)NCC[C@H]2CC23CCN(c2ccc(C(=O)N(C)C)c(Cl)c2)CC3)C(F)(F)F)c1` [Example 7-32, 2-chloro-N,N-dimethyl-4-((R)-1-(2-((R)-3,3,3-trifluoro-2-hydroxy-2-(3-methoxyphenyl)propanamido)ethyl)-6-azaspiro[2.5]octan-6-yl)benzamide]: in experiment [1], a half-maximal response (EC50) required 0.284 µM and the Emax stood at 69%. In experiment [2], the “LXR alpha IP (nM)” value is given as “No IP” and the Emax came to 17%.

With `CN(C)C(=O)c1ccc(N2CCC3(CC2)CC3CCCN(C)C(=O)[C@](O)(c2ccccc2)C(F)(F)F)cc1Cl` (stereo partly drawn) [Example 7-33, 2-chloro-N,N-dimethyl-4-(1-(3-((R)-3,3,3-trifluoro-2-hydroxy-N-methyl-2-phenylpropanamido)propyl)-6-azaspiro[2.5]octan-6-yl)benzamide], in experiment [1], a half-maximal effect (EC50) was put at 0.136 µM and the Emax amounted to 44%. For the same molecule, in experiment [2], the “LXR alpha IP (nM)” value is on record as “No IP” and the Emax worked out at 0%.

In the case of `CN(C)C(=O)c1ccc(N2CCC3(CC2)CC3CCCN(C)C(=O)C(C)(C)c2ccccc2)cc1Cl` (centres unmarked) [Example 7-34, 2-chloro-4-(1-(3-(N,2-dimethyl-2-phenylpropanamido)propyl)-6-azaspiro[2.5]octan-6-yl)-N,N-dimethylbenzamide], in experiment [1], the EC50 worked out at 0.264 µM and the Emax is 23%. In experiment [2], the “LXR alpha IP (nM)” value was “No IP” and the Emax came to 0%.

Turning to `CN(C)C(=O)c1ccc(N2CCC3(CC2)CC3CCCNC(=O)[C@](O)(c2ccccc2)C(F)(F)F)cc1Cl` (stereo partly drawn) [Example 7-35, 2-chloro-N,N-dimethyl-4-(1-(3-((R)-3,3,3-trifluoro-2-hydroxy-2-phenylpropanamido)propyl)-6-azaspiro[2.5]octan-6-yl)benzamide], in experiment [1], the EC50 came to 0.435 µM and the Emax came out at 46%. Further, in experiment [2], the “LXR alpha IP (nM)” value is “No IP” and the Emax came out at 0%.

For `CN(C)C(=O)c1ccc(N2CCC3(CC2)CC3CCCNC(=O)C(C)(C)c2ccccc2)cc1Cl` (centres unmarked) [Example 7-36, 2-chloro-N,N-dimethyl-4-(1-(3-(2-methyl-2-phenylpropanamido)propyl)-6-azaspiro[2.5]octan-6-yl)benzamide], in experiment [1], it took 0.525 µM to reach a half-maximal effect (EC50) and the Emax was 57%. For the same molecule, in experiment [2], the “LXR alpha IP (nM)” value was “No IP” and the Emax amounted to 0%.
